Patent publication US6140333A, “N-acyl cyclic amine derivatives” (priority 1998, dated 2000)

How the values were obtained:
[1] = target: T1, m3 muscarinic acetylcholine receptor (Homo sapiens, UniProt P20309); test: biochemical; format: binding; conditions: for Ki: CHO cells expressing m3, 0.2 nM [3H]-N-methylscopolamine, pH 7.4, 120 min, room temperature; for m2/m3 (ratio of Ki): selectivity m2 over m3, binding
T1 construct: purchased Receptor Biology Inc; host or cells: CHO cells
Procedure: (§1) These tests were performed according to a modification of the method of Hargreaves et al. (Br. J. Pharmacol. 107: pp. 494-501, 1992). Thus, CHO cells expressing m2 and m3 muscarinic acetylcholine receptors (Receptor Biology Inc.) were incubated with 0.2 nM [^3 H]-N-methylscopolamine (84Ci/mmol, New England Nuclear, Inc.) and each compound of the present invention to be tested in 0.5 ml of 50 mM tris-HCl--10 mM MgCl2 --1 mM EDTA (pH 7.4) for 120 minutes at room temperature (about 20 to 25° C.), followed by suction filtration with a glass filter (Uni-Filter plate GF/C; Packard Instruments Co., Ind.) and washing four times with 1 ml of ice-cold Tris-HCl buffer. After the filter was dried for 1 hour at 50° C., a scintillator (Miroscinti 0; Packard Instruments Co., Inc.) was added, and the radioactivity of [^3 H]-N-methylscopolamine adsorbed by the filter was counted by a liquid scintillation counter (TopCount™; Packard Instruments Co., Inc.). Non-specific binding of [^3 H]-N-methylscopolamine was measured in the presence of 1 μM N-methylscopolamine, which was added. According to the method of Cheng and Prusoff (Biochem. Pharmacol. 22: pp. 3099-3108, 1973), the binding affinity (Ki value) of the compound of the present invention for muscarinic receptors was calculated from the concentration (IC50) of the test compound which achieved 50% inhibition of the binding of [^3 H]-N-methylscopolamine, labeled ligand.

[2] = target: T2, m2 muscarinic acetylcholine receptor (Homo sapiens, UniProt P08172); test: biochemical; format: binding; conditions: CHO cells expressing m2; 0.2 nM [3H]-N-methylscopolamine, pH 7.4, 120 min, room temperature
T2 construct: purchased Receptor Biology Inc; host or cells: CHO cells
T2 sequence (P08172 1-466): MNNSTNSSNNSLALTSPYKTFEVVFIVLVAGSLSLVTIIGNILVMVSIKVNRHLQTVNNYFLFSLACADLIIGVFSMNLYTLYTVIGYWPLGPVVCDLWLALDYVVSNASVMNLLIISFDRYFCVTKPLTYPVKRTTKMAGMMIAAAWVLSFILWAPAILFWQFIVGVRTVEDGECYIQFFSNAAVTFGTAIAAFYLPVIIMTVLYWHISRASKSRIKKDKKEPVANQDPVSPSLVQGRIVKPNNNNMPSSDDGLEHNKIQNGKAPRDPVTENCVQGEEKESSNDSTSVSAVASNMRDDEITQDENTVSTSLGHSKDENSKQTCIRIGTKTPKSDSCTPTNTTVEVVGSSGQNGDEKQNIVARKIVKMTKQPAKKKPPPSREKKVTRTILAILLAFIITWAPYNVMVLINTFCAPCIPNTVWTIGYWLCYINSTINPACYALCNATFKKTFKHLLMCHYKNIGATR
Procedure: as §1

muscarinic M3 receptor = test: Bronchodilation in dogs (oral administration), methacholine provocation test; format: in vivo, dog (beagle); conditions: 0.1 mg/kg, P.O., 4 hrs later
Procedure: Tests for Antagonism Against Muscarinic M3 Receptor (in vivo)
Tests for Bronchodilation in Dogs (oral administration)
Male beagles of 12 to 24 months of age, weight 10 to 15 kg, were anesthetized with pentobarbital (30 mg/kg, iv.), and the trachea of each dog was intubated. The sensitivity of the airway (methacoline reaction threshold value) was measured at least twice at two weeks' intervals by a methacoline provocation test, and dogs manifesting a reproducible methacoline reaction threshold value^1) were selected. To those dogs whose methacholine reaction threshold value was established, the test compound was orally administered (0.1 mg/kg). Four hours after the administration, a methacoline provocation test was again conducted, and the methacholine reaction threshold value^2) after the administration of the test compound was measured. The brochodilator activity of the test compound was determined by the following equation: [formula]
The methacholine provocation test was conducted using an Astograph TCK-6100H model (Chest). Methacholine chloride was used as brochoconstritor, which was diluted with isotonic sodium chloride solution in 10 grade concentration levels from 40,000 μg/ml to 20,000, 10,000, 5,000, 2,500, 1,250, 625, 312.5, 156 and 78 μg/ml. The test animals were caused to inhale these methacoline aerosols for 1 min. at a time, starting with the lowest concentration upward, and the respiratory resistance was continuously recorded. The concentration of methacoline at which the respiratory resistance reached a value twice its initial level was deemed to be the methacholine threshold value.

[3] = target: T3, M2 receptor (right atrium) (Rattus norvegicus, UniProt P10980); test: Antagonism to M2 receptor in isolated rat right atrium (carbachol dose-response); conditions: 32° C.
T3 construct: the right atrium was isolated; from tissue; host or cells: isolated right atrium of male SD rat
T3 sequence (P10980 1-466): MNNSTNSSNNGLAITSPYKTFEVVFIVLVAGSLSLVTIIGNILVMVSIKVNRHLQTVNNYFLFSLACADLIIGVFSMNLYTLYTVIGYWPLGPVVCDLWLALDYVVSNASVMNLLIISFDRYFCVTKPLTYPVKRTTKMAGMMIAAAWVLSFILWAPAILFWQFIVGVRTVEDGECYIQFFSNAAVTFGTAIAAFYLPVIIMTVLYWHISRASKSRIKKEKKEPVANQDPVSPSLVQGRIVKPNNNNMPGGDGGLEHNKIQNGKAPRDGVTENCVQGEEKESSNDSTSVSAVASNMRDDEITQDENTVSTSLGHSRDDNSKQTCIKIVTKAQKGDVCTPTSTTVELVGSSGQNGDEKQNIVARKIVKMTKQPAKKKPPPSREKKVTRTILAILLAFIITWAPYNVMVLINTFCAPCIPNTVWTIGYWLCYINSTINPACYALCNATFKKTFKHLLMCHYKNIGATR
Procedure: 1) Tests for Antagonism to M2 Receptor in an Isolated Rat Right Atrium
These tests were performed according to a conventional method. A male SD strain rat (weighing 300-500 g) was killed by exsanguination, and the right atrium was isolated. This preparation was isometrically suspended in organ bath filled with 20 ml of Krebs-Hanseleit solution (gassed with 95% O2 -5% CO2 and kept at 32° C.) with an initial tension of 0.5 g. The heart rate was recorded with a heart rate counter. After the preparation was equilibrated for 30 minutes, carbachol (10^-9 to 10^-6 M) was cumulatively administered in three-fold increasing doses. Thus, a decrease in heart rate was measured to obtain a dose-response curve for the control experiment. After the preparation was washed with fresh solution to restore the heart rate, a test compound was administered thereto. Ten minutes later, carbachol was cumulatively administered again. Responses to carbachol were expressed as percentages based on the heart rate before the administration of carbachol as 100%. The antagonistic potency (KB value) of the test compound was determined from the degree of shift of the dose-response curve obtained by treatment with individual test compound of the present invention.

M3 receptor (trachea) = target: T4, M3 receptor (trachea) (Rattus norvegicus, UniProt P08483); test: Antagonism to airway M3 receptor in isolated rat trachea (carbachol dose-response); conditions: for Kb: isolated rat trachea, carbachol, 32° C.; for M2/M3 (ratio of KB): selectivity right atrium M2 over trachea M3, in vitro
T4 construct: the trachea was isolated; from tissue; host or cells: isolated trachea of male SD rat
Procedure: 2) Tests for Antagonism to the Airway M3 Receptor in an Isolated Rat Right Trachea
These tests were performed according to a conventional method. A male SD strain rat (weighing 300-500 g) was killed by exsanguination, and the trachea was isolated. Annular segments (2 mm wide) were cut out from the trachea and cut transversely at the anterior cartilage part to make an open ring preparation. The preparation was suspended in a Magnus tube filled with 5 ml of Krebs-Hanseleit solution (gassed with 95% O2 -5% CO2 and kept at 32° C.) with an initial tension of 1.0 g and a resting tension of 0.6 g. The tension of the preparation was recorded isometrically. After the preparation was equilibrated for an hour, the preparation was caused to contract twice with 10^-4 M carbachol, and the second contraction induced by carbachol was used as the reference contraction. After the preparation was washed with fresh solution to be restored to the base line, a test compound was administered thereto (or no treatment was given). Ten minutes later, carbachol (10^-8 to 10^-3 M) was cumulatively administered in three-fold increasing doses to obtain a dose-response curve. The dose-response curve was plotted by expressing responses as percentages based on the reference contraction of the preparation as 100%. The antagonistic potency (KB value) of the test compound was determined from the degree of shift of the dose-response curve obtained by treatment with the test compound.

T1 sequence (P20309 whole entry): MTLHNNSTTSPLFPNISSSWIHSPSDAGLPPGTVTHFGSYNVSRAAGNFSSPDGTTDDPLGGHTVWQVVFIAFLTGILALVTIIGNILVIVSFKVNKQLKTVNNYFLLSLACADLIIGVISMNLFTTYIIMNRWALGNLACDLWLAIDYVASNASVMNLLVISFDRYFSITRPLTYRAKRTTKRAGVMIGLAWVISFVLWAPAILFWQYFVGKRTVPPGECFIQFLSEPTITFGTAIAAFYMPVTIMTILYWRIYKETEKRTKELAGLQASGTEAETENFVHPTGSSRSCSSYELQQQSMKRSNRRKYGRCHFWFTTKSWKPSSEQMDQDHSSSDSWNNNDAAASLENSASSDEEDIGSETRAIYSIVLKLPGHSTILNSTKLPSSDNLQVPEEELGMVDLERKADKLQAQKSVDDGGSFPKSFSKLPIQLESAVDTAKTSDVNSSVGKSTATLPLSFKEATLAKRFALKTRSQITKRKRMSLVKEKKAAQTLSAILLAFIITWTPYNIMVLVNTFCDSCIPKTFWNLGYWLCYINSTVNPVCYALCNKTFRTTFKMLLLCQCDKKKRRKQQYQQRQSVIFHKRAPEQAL
T4 sequence (P08483 whole entry): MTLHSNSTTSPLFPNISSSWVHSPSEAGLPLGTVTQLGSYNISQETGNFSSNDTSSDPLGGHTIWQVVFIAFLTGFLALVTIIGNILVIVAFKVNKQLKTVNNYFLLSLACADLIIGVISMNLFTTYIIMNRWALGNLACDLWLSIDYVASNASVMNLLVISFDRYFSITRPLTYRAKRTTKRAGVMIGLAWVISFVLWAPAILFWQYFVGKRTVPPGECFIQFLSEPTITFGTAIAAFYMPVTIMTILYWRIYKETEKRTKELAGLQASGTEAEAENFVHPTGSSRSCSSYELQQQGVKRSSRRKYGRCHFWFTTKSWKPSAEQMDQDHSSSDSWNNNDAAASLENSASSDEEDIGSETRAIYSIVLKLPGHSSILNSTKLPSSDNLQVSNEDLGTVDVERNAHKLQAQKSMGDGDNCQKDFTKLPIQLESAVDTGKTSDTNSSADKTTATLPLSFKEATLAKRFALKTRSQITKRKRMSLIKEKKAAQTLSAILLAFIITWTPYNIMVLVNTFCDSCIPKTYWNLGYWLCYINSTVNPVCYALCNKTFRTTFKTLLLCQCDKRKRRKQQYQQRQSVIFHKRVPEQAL

Compound	Ki [1] [nM]	m2/m3 (ratio of Ki) [1]	Ki [2] [nM]	Methacoline Provocation Test Shift value (muscarinic M3 receptor)	Kb [3] [nM]	Kb (M3 receptor (trachea)) [nM]	M2/M3 (ratio of KB) (M3 receptor (trachea))
CC1NCCC12CCN(C(=O)[C@](O)(c1ccccc1)[C@@H]1CCC(F)(F)C1)CC2 (single isomer, unassigned) [Example 43 ((IS*)-substance), (1R*)- and (1S*)-8-{(2R)-2-((1R)-3,3-difluorocyclopentyl)-2-hydroxy-2-phenylacetyl}-1-methyl-2,8-diazaspiro[4.5]decane]	0.26	80	21	22	–	–	–
Cl.NC1CCN(C(=O)[C@](O)(c2ccccc2)[C@@H]2CCC(F)(F)C2)CC1 [Example 1, 4-Amino-1-{(2R)-2-((1R)-3,3-difluorocyclopentyl)-2-hydroxy-2-Phenylacetyl}piperidine monohydrochloride]	–	–	–	–	730	20	37
O=C(N1CCC2(CCNC2)CC1)[C@](O)(c1ccccc1)[C@@H]1CCC(F)(F)C1 [Example 26, 8-{(2R)-2-((1R)-3,3-difluorocyclopentyl)-2-hydroxy-2-phenylacetyl}-2,8-diazaspiro[4.5]decane]	0.44	60	27	7.1	75	0.83	75
O=C(N1C[C@H]2CCNCC[C@H]2C1)[C@](O)(c1ccccc1)[C@@H]1CCC(F)(F)C1 [Example 29, 9-{(2R)-2-((1R)-3,3-difluorocyclopentyl)-2-hydroxy-2-phenylacetyl}-cis-4,9-diazabicyclo[5.3.0]decane]	1.2	190	230	22	230	1.6	140
O=C(N1CC2=C(CNC2)C1)[C@](O)(c1ccccc1)[C@@H]1CCC(F)(F)C1 [Example 35, 3-{(2R)-2-((1R)-3,3-difluorocyclopentyl)-2-hydroxy-2-phenylacetyl}-3,7-diazabicyclo[3.3.0]oct-1(5)-ene]	4.2	160	670	5.8	2400	8	300
